Reference: patent US10131679B2, “Substituted dihydropyrrolopyrazole compound” (UBE INDUSTRIES, LTD., priority 2014, dated 2018)

Experiments:
[1] = system: human large intestine cancer cell line (HCT-116); assay: Human large intestine cancer (HCT-116) cell growth inhibition test; type: cell-based; conditions: 72 h, HCT-116, culture for 3 days, sulforhodamine B absorbance
Summary of the method: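 HCT-116 cells seeded at 1.0×10^3 cells/well in McCoy's 5a with 10% FBS, then exposed to compound (0.1% DMSO final) for 3 days. Growth measured by sulforhodamine B absorbance; IC50 derived from concentration-inhibition data.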

[2] = system: IL-2 production in human peripheral blood mononuclear cell (PBMC); assay: Human PBMC CD3/CD28-induced IL-2 production inhibition test; type: cell-based; conditions: 48 h, CD3/CD28 stimulation, incubation for 2 days, ELISA
Description: Human Peripheral Blood Mononuclear Cell (PBMC) CD3/CD28-Induced IL-2 Production Inhibition Test
PBMC was separated and collected by using Ficoll-Paque (17-1440-02 manufactured by GE Healthcare Japan Corp.) from blood collected from healthy human adult in the presence of heparin. RPMI1640 medium (manufactured by GIBCO/Thermo Fisher Scientific, Inc., REF. 11875) containing 10% FBS (manufactured by GIBCO/Thermo Fisher Scientific, Inc. REF. 10082) and containing a test compound dissolved in DMSO and 2 μg/mL anti-hCD28 (manufactured by R&D Systems, Inc., Cat. No. MAB342) was added at 100 μL/well to T cell Activation Plate Anti-Human CD3 96-well plate (manufactured by Corning Inc., REF. 354725), and subsequently, a PBMC suspension adjusted such that the number of cells was 2×10^6 cells/mL was added at 100 μL/well (final DMSO concentration: 0.1%). A RPMI1640 medium containing 10% FBS and containing 0.1% DMSO and 2 μg/mL anti-hCD28 was similarly added to wells not supplemented with the test compound. After incubation for 2 days in a carbon dioxide incubator, the culture supernatant was collected. The collected culture supernatant was stored at −20° C. until IL-2 content measurement.
In the measurement of IL-2 content in the culture supernatant, a sandwich ELISA kit Quantikine Human IL-2 (manufactured by R&D Systems, Inc., Cat. No. S2050) was used. The IL-2 content of each sample was calculated from the calibration curve of Standard IL-2 included in the kit. When the amount of IL-2 produced by CD3/CD28 stimulation in the case of the addition of only DMSO was defined as 100%, the rate of inhibition of IL-2 production at each concentration of the test compound was calculated. A test compound concentration inhibiting 50% of IL-2 production was calculated as an IC50 value (nM) from the concentration of the added test compound and the rate of inhibition of IL-2 production by the test compound by using EXSUS (version 8.0.0 or version 8.0.1, manufactured by CAC Exicare Corp.).

[3] = system: IL-6 production in rat adjuvant arthritis model; assay: IL-6 production inhibition test in rat adjuvant arthritis model; type: in vivo, LEW rats; conditions: single dose, administration of 10 mg/kg, left ankle, read-out: rate of inhibition of IL-6 production
Experimental: IL-6 Production Inhibition Test in Rat Adjuvant Arthritis Model
A single-dose drug efficacy test using rat adjuvant arthritis models was carried out by modifying the method of Magari. K et al. (J. Rheumatol. 30 (10), 2193 (2003)).
LEW rats (female, supplied by Charles River Laboratories Japan, Inc.) were used as laboratory animals. An adjuvant prepared from heat-killed bacteria of Mycobacterium butyricum (264010 manufactured by Difco Laboratories Ltd.) and liquid paraffin (manufactured by Wako Pure Chemical Industries, Ltd., Code No. 128-04375) was subcutaneously administered as a phlogogenic material to the right hind leg footpads of the rats under inhalation anesthesia with isoflurane (manufactured by Wako Pure Chemical Industries, Ltd., Code No. 099-06571) to prepare arthritis models. Approximately 2 weeks later, left paw edema was measured with a paw volume meter (model TK-101CMP manufactured by Unicorn Co., Ltd.), and grouping was performed such that the average volume of left paw edema was equal among groups. A test compound or only a solvent was administered, after a certain time, they were sacrificed by exsanguination from the abdomens under isoflurane anesthesia, and the left ankles were collected, chopped, and frozen by using liquid nitrogen. The collected left ankle portions were disrupted in CRYOPress (model CP-100WP manufactured by Microtec Co., Ltd.), then supplemented with a buffer solution, shaken overnight at 4° C., and then centrifuged to collected a supernatant. The preparation of the buffer solution was performed by mixing a Tris buffer solution (pH 7.4), sodium chloride (NaCl), phenyl methyl sulfonyl fluoride (PMSF), Triton X-100, EDTA-free complete tablets (manufactured by F. Hoffmann-La Roche, Ltd., REF. 11 873 580 001), and Otsuka distilled water (manufactured by Otsuka Pharmaceutical Co., Ltd., product No. 1323). IL-6 in the collected supernatant was measured by using a sandwich ELISA kit (manufactured by R&D Systems, Inc., Catalog No. S6050).
The IL-6 content of each sample was calculated from the calibration curve of Standard IL-6 included in the kit. When the amount of IL-6 produced in the solvent administration control group was defined as 100%, the rate of inhibition of IL-6 production (%) at each dose of the test compound was calculated.

[4] = system: Human keratinocytes (NHEK-Neo Pooled); assay: Human keratinocyte growth inhibition assay; type: cell-based; conditions: 48 h, culture for 2 days, Cell Counting Kit-8
Experimental: Human Keratinocyte Growth Inhibition Assay
The measurement of a human keratinocyte growth inhibitory effect was carried out by modifying the method of Schafer et al. (British Journal of Pharmacology, 159, 842 (2011)).
Human keratinocytes (NHEK-Neo Pooled, manufactured by Lonza Group AG, Cat. No. 00192906) were cultured in KGM-Gold Bullet Kit (manufactured by Lonza Group AG, Cat. No. 00192060) and inoculated at 2.0×10^3 cells/well to a 96-well plate. After overnight culture in a carbon dioxide incubator, a test compound dissolved in DMSO (final DMSO concentration: 0.1%) was added and left standing in a carbon dioxide incubator. After culture for 2 days, the absorbance thereof was measured by using Cell Counting Kit-8 (343-07623 manufactured by Dojindo Laboratories)).
The rate of inhibition of cell growth at each concentration was calculated from the test compound concentration and the absorbance of Cell Counting Kit-8, and the concentration of the test compound necessary for inhibiting 50% of cell growth (IC50 value) was calculated by using EXSUS (version 8.0.0 or version 8.0.1, manufactured by CAC Exicare Corp.).

## COCC[C@@H](NC(=O)N1Cc2c(NC(=O)C3([Si](C)(C)C)CCC3)n[nH]c2C1(C)C)c1ccccc1 [IV-235, (R)—N-(3-Methoxy-1-phenylpropyl)-6,6-dimethyl-3-[1-(trimethylsilyl)cyclobutanecarboxamido]-4,6-dihydropyrrolo[3,4-c]pyrazole-5(1H)-carboxamide]
[1]
  IC50: ≤ 500 nM
[2]
  IC50: ≤ 50 nM
[3]
  inhibition in vivo at 10 mg/kg: ≥ 50%
[4]
  IC50: ≤ 500 nM
